US20240376114A1, “NUCLEAR TRANSPORT MODULATORS AND USES THEREOF” (Karyopharm Therapeutics Inc., priority 2011, published 2024)
Counter-ions that a name gives are not always drawn.

What was measured:
CRM1 [1] = target: T1, CRM1 (Homo sapiens (Human), UniProt O14980); experiment: RevGFP assay: inhibition of CRM1-mediated nuclear export; assay type: cell-based; conditions: U2OS-RevGFP cells, about 1 hr incubation; read-out: Rev Export [IC50]
Description: The ability of exemplary compounds of the invention to inhibit CRM1-mediated nuclear export was assessed in a RevGFP assay. Rev is a protein from human immunodeficiency virus type 1 (HIV-1) and contains a nuclear export signal (NES) in its C-terminal domain and a nuclear localization signal (NLS) in its N-terminal domain. Nuclear export of Rev protein is dependent on the classical NES/CRM1 pathway (Neville et al. 1997).
In this assay, U2OS-RevGFP cells were seeded onto clear-bottomed, black, 384-well plates the day before the experiment. Compounds were serially diluted 1:2 in DMEM, starting from 40 μM in a separate, 384-well plate, and then transferred onto the cells. The cells were incubated with compound for about 1 hr before fixation with 3.7% formaldehyde and nuclei staining with Hoechst 33258. The amount of GFP in cell nuclei was measured and the IC50 of each compound was determined (Kau et al. 2003). […]

[2] = CellTiter 96 AQueous One Solution (MTS) cell proliferation assay; assay type: cell-based; conditions: human, MM.1S multiple myeloma cells; MM.1S cells, 72 h treatment; read-out: Cytotoxicity [EC50]
Excerpt: The CellTiter 96® AQueous One Solution cell proliferation assay (Promega) was used on MM.1S multiple myeloma cell line to study the cytotoxic and cytostatic properties of the compounds. The assay is based on the cleavage of the tetrazolium salt, MTS, in the presence of an electron-coupling reagent PES (phenazine ethosulfate). The MTS tetrazolium compound is bioreduced by cells into a colored formazan product that is soluble in tissue culture medium. This conversion is presumably accomplished by NADPH or NADH produced by dehydrogenase enzymes in metabolically active cells. Assays are performed by adding a small amount of the CellTiter 96® AQueous One solution reagent directly to culture wells, incubating for 1-4 hours and then recording the absorbance at 490 nm with a 96-well plate reader.
The cells were seeded at 5×10^3 to 1.5×10^4 cells (depending on cell type) in each well of a 96-well plate in 100 μL of fresh culture medium and adherent cells were allowed to attach overnight. The stock solutions of the compounds were diluted in cell culture medium to obtain eight concentrations of each drug, ranging from 1 nM to 30 μM and DMSO at less than 1% v/v was used as a negative control. The resulting drug solutions were transferred onto the cells. After 72 h of treatment, 20 μl of CellTiter 96® AQueous reagent was added into each well of the 96-well assay plates and the plate was incubated at 37° C. for 1-4 hours in a humidified, 5% CO2 atmosphere. Then the absorbance of each well was recorded at 490 nm using a 96-well plate reader. In most cases, the assay was performed in triplicate and the results were presented as half maximal inhibitory concentration (IC50). Optical density versus compound concentration was plotted and analyzed using non-linear regression equations (IDBS XLfit) and the IC50 for each compound was calculated.

[3] = Pharmacokinetic (PK) assay, plasma AUC; assay type: in vivo; conditions: 10 mg/kg, mouse, PO, 10 mpk, read-out: AUCInf hr * ng/mL (mouse, PO, 10 mpk)
Description: Pharmacokinetics (PK) play an increasing role in drug discovery and development. Pharmacokinetics is the quantitative study of the time course of drug absorption, distribution, metabolism and/or excretion. When a drug is administered, it distributes rapidly from its administration site into the systemic blood circulation. One measure of the extent of a therapeutic agent's distribution is the area under the plasma concentration-time curve (AUC), calculated to the last measured concentration (AUCt) and extrapolated to infinity (AUCinf). AUC is thus a useful metric to quantitate drug exposure. AUC. Blood was collected from mice (N=3) to contribute to the total of 10 time points (pre-dose, 5 min, 15 min, 30 min, 1 hour, 2 hours, 4 hours, 8 hours, 12 hours and 24 hours post dose). Mice were bled on a rotating basis, each mouse contributing 3 time points to the blood collection. At the designated time points, animals were anaesthetized under isoflurane, and approximately 110 μL of blood per time point was collected via retro-orbital puncture into pre-cooled K2EDTA (anti-coagulant) tubes. Blood samples were put on wet ice and centrifuged (2000 g, 5 min at 4° C.) to obtain plasma within 30 minutes of sample collection. All samples were stored frozen at approximately −80° C. until analysis. Prior to analysis, samples were mixed with internal standard (dexamethasone) in acetonitrile, vortexed, centrifuged, and supernatant was injected for analysis. Concentration of compounds in plasma was determined using LC-MS-MS instrumentation (API 4000, Triple Quadruple with electrospray ionization; Acuity Ultra Performance Liquid Chromatography column C18, with MeOH and formic acid as organic solvents). AUC values were calculated using WinNonlin Professional 6.2 software package, non-compartmental pharmacokinetic model NCA200.

[4] = Brain to plasma (B:P) ratio determination; assay type: in vivo; conditions: brain and plasma; mouse, PO at 10 mg/kg, 2 hours post-dose
Excerpt: The brain to plasma (B:P) ratio is one method of quantifying the relative distribution of a therapeutic agent in brain tissue to that in circulation and, as such, provides one indication of the brain penetration of a given therapeutic agent. A high brain to plasma ratio is preferred when targeting diseases localized in the central nervous system (CNS), including the brain and the cerebrospinal fluid. However, a lower brain to plasma ratio is generally preferable for non-CNS therapeutic agents to minimize brain penetration and avoid potential side effects caused by unwanted accumulation of the therapeutic agents in the brain and CNS tissue.
Brain to Plasma (B:P) Ratio. […] Following collection, brain tissue was rinsed with cold saline, dried on filter paper, weighed and snap-frozen by placing on dry ice. All samples were stored frozen at approximately −80° C. until analysis. […] Plasma samples were treated with the identical method (except homogenization step) and the concentration of compound in each matrix was calculated based on generated standard curves.

HCT-116 xenografts = experiment: Inhibition of HCT-116 xenografts in vivo
Description: Mice were inoculated on the hind flank with HCT-116 cell line and the HCT-116 xenografts were grown to approximately 150 mm^3, at which time treatment was initiated. Treatment groups were as follows:
50 mg/kg 5-FU IP, days 1-3;
25 mg/kg Compound 1 compound QD×5 SC (low dose);
75 mg/kg Compound 1 compound QD×5 SC (high dose).

CRM1 [5] = target: T1, CRM1; experiment: Immunofluorescence of p21 and p53 localization in HCT-116 cells; assay type: cell-based; conditions: 10 μM, 24 hours
Description: HCT-116 cells were incubated with 10 μM Compound 1 for 24 hours, at which time the cells were fixed and stained with antibodies to p21 or p53, or the DNA stain, DAPI.

HCT-116 cells [6] = experiment: Western blot of p53, p21, PARP in cytoplasmic and nuclear fractions of HCT-116 cells; assay type: cell-based; conditions: 10 μM
Description: HCT-116 cells were incubated with 10 μM Compound 1 for 2, 4, 6, 16, or 24 hours (indicated in FIGS. 2A and 2B as “2+,” 4+,” etc.), or with 10 μM Compound 1 for 22 hours and an additional 1 μM Compound 1 for another 2 hours (indicated in FIGS. 2A and 2B as “22+2+”). At the end of the incubation period, total protein extracts were prepared. Cytoplasmic and nuclear proteins were separated, immunoblotted and reacted with antibodies to p53, p21, full-length (FL) PARP, cleaved PARP and lamin B.

HCT-116 cells [7] = experiment: Immunofluorescence of pRb localization in HCT-116 cells; assay type: cell-based; conditions: 10 μM, 24 hours
Description: HCT-116 cells were incubated with 10 μM Compound 1 for 24 hours, at which time the cells were fixed and stained with antibodies to pRb or DAPI.

HCT-116 cells [8] = experiment: Western blot of pRb and phosphorylated pRb in HCT-116 cells; assay type: cell-based; conditions: 10 μM, more than 6 hours
Description: HCT-116 cells were incubated with 10 μM Compound 1 for 2, 4, 6, 16, or 24 hours (indicated in FIGS. 3A and 3B as “2+,” 4+,” etc.), or with 10 μM Compound 1 for 22 hours and an additional 1 μM Compound 1 for another 2 hours (indicated in FIGS. 3A and 3B as “22+2+”). At the end of the incubation period, total protein extracts were prepared. Cytoplasmic and nuclear proteins were separated, immunoblotted and reacted with antibodies to phosphorylated pRb (pRb^phos), pRb, actin and lamin B.

HCT-116 cells [9] = experiment: Immunofluorescence of APC and IκB localization in HCT-116 cells; assay type: cell-based; conditions: 10 μM, 24 hours
Description: HCT-116 cells were incubated with 10 μM Compound 1 for 24 hours, at which time the cells were fixed and stained with antibodies to APC or IκB, or DAPI.

[10] = test system: splenocytes and circulating CD8 cells; experiment: FACS of immune cells at day 26 of the EAE model; assay type: in vivo, mouse; conditions: day 26, high dose (75 mg/kg)
Excerpt: On day 26, a subset of mice was sacrificed and immune cells were subjected to fluorescence-activated cell sorting (FACS) using standard methods.

[11] = test system: EAE model of multiple sclerosis; conditions: 25 mg/kg and 75 mg/kg, oral gavage, 3 days per week

T1 sequence (O14980 whole entry, the tested form may be a part): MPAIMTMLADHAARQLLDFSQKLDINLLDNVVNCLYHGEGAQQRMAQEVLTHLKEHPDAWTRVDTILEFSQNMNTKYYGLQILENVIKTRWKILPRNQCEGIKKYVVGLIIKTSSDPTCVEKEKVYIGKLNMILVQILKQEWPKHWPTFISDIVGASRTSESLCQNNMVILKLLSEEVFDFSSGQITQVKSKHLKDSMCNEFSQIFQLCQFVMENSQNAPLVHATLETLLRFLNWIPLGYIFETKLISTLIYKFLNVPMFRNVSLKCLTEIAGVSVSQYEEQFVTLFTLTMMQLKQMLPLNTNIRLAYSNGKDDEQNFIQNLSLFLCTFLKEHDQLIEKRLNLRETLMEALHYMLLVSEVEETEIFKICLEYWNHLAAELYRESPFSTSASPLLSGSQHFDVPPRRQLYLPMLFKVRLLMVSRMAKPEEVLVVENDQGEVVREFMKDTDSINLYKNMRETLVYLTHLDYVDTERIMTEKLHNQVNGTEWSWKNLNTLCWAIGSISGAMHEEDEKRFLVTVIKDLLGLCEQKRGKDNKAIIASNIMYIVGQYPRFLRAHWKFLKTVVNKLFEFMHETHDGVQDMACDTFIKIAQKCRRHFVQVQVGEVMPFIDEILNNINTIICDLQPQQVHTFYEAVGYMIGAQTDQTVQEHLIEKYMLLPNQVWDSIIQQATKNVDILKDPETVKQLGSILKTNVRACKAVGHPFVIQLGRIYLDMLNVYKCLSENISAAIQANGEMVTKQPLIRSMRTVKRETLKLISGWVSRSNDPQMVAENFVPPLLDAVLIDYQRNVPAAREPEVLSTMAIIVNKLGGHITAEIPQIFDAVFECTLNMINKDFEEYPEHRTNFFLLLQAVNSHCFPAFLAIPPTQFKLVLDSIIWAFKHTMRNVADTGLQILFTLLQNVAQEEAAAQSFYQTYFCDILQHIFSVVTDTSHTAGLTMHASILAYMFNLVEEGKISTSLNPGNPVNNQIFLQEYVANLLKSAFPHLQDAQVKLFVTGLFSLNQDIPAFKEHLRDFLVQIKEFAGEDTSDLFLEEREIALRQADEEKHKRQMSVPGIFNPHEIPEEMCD

SMILES	IC50 (CRM1 [1]) [µM]	EC50 at 72 h [2] [µM]	AUC(0-inf) [3] [µg·h/mL]	Kp at 2 h [4]	Tumor growth (tumor volume as percentage of initial volume) (HCT-116 xenografts; 25 or 75 mg/kg QDx5 SC, HCT-116 xenograft mice)	Anti-tumor effect compared to 5-FU (HCT-116 xenografts; vs 50 mg/kg 5-FU IP days 1-3)	Nuclear export function of CRM1 (CRM1 [5])	Subcellular localization of p21 and p53 (CRM1 [5])	Induction of p21 and p53 (Western blot) (HCT-116 cells [6]; 2-24 hours)	Induction of apoptosis (PARP decrease, cleaved PARP increase) (HCT-116 cells [6]; 24 hours)	Nuclear localization of pRb (HCT-116 cells [7])	Phosphorylation state of pRb (Western blot) (HCT-116 cells [8])	Nuclear localization of APC and IκB (HCT-116 cells [9])	Number of splenocytes and circulating CD8 cells (FACS) [10]	EAE clinical score [11]
O=C(/C=C/n1cnc(-c2cc(C(F)(F)F)cc(C(F)(F)F)c2)n1)N1CC(F)(F)C1 [Compound 4, (E)-3-(3-(3,5-bis(trifluoromethyl)phenyl)-1H-1,2,4-triazol-1-yl)-1-(3,3-difluoroazetidin-1-yl)prop-2-en-1-one]	< 1	< 1													
O=C(/C=C\n1cnc(-c2cc(C(F)(F)F)cc(C(F)(F)F)c2)n1)N1CC(F)(F)C1 [Compound 1, (Z)-3-(3-(3,5-bis(trifluoromethyl)phenyl)-1H-1,2,4-triazol-1-yl)-1-(3,3-difluoroazetidin-1-yl)prop-2-en-1-one]		< 1	12.3	5	inhibited tumor growth	superior anti-tumor effects compared to 5-FU	inhibited the nuclear export function of CRM1	both p21 and p53 were concentrated in the nucleus	induces p21 and p53 in both cytoplasmic and nuclear fractions	induces apoptosis in HCT-116 cells after 24 hours	induced nuclear localization of the tumor suppressor gene protein, pRb	induces dephosphorylation of pRb in both cytoplasmic and nuclear fractions	induced the nuclear localization of the tumor suppressor proteins, APC and IκB	modest decrease in the number of splenocytes and circulating CD8 cells	reduced the clinical score in a statistically significant manner
O=C(/C=C\n1cnc(-c2cc(C(F)(F)F)cc(C(F)(F)F)c2)n1)NC1C2CNCC21 (stereo not drawn) [Compound 56, (Z)—N-(3-azabicyclo[3.1.0]hexan-6-yl)-3-(3-(3,5-bis(trifluoromethyl)phenyl)-1H-1,2,4-triazol-1-yl)acrylamide hydrochloride]	< 1	< 1													
